System: human Z138 mantle cell lymphoma cell line
Assay: Tumor growth inhibition study in vivo, Z138 xenograft
Set-up: species or system SCID beige mice
Conditions: for Antitumor activity / tumor growth compared to control group (words): 3 mg/kg i.p., study days 19-22, end of study day 33; for TGI (%): tumor growth inhibition vs. control group on day 33 after tumor cell inoculation, antibodies 1 mg/kg once weekly
[1] = i.p., bendamustine 3 mg/kg days 19-22

Cn1c(CCCC(=O)O)nc2cc(N(CCCl)CCCl)ccc21 [Bendamustine, 4-[5-[Bis(2-chloroethyl)amino]-1-methylbenzimidazol-2-yl]buta-noic acid]
Antitumor activity / tumor growth compared to control group (words): comparable tumor growth as the control group | Antitumor activity / tumor growth compared to control group (words) (listed as bendamustine): did not show any antitumor activity | TGI (%) [1]: 0% | Parametric TCR based on sAUC (vs. vehicle group 1, study end day 33, i.p., antibodies 1 mg/kg once weekly (days 19, 26), bendamustine 3 mg/kg days 19-22): 0.9

B-HH6-B-KV1 GE: Afucosylated glyco-engineered humanized B-Ly1 type II anti-CD20 IgG1 antibody; VH SEQ ID NO:7 (B-HH6), VL SEQ ID No. 20 (B-KV1)
TGI (%) [1]: 47%
